# Results reported in publication PMC4821856, “Novel Anti-Campylobacter Compounds Identified Using High Throughput Screening of a Pre-selected Enriched Small Molecules Library” (Frontiers in Microbiology, 2016).
# Read-outs that look alike come from different tables or passages of the source.
# Legend:
# C. coli ATCC 33559 [1] = test: Minimum bactericidal concentration (MBC); format: cell-based, Campylobacter coli; conditions: for MBC: Campylobacter coli
# Procedure: (§1) Initially we re-confirmed the efficacy of the 79 resynthesized compounds against C. jejuni 81–176 and C. coli ATCC 33559.
# (§2) Minimum inhibitory concentration value not necessarily indicates the killing concentration; therefore, we determined MBC for the top-12 compounds. MBC is defined as the concentration at which 99.9% (below detection limit) of Campylobacter organisms are killed. The MBC for each of these compounds were determined as described previously (Ling et al., [2015]). […] Overall MIC and MBC values were higher for C. coli compared to C. jejuni strain. The MIC and MBC for these 12 compounds for both C. jejuni and C. coli are presented in (Table 1).
# C. coli ATCC 33559 [2] = test: Minimum inhibitory concentration (MIC); format: cell-based
# Procedure: (§3) The dose-dependent effect of 35 compounds against the highly pathogenic C. jejuni 81–176 strain was tested. Compounds were two-fold serially diluted (200 to 12.5 μM). One hundred micro liter of the OD600 0.1 adjusted C. jejuni culture was pipetted in to each well of a 96 well plate, treated with 1 μL of diluted compound and the plate was incubated at 42°C under microaerobic conditions for 24 h. Growth inhibition was assessed as above.
# as §1, §2
# C. jejuni 81–176 [3] = test: Sequential passage resistance assay at sub-lethal dose (0.5X MIC), 15 passages; format: cell-based, Campylobacter jejuni; conditions: liquid MH with 0.5X MIC
# Procedure: Single step and sequential passage resistance assays were performed as described previously with a few modifications (Ling et al., [2015]; Xu et al., [2015]). The top 12 hit compounds were tested in this experiment. The MIC values for each of these 12 compound as determined in above assay was used for C. jejuni resistance studies using lethal (5X MIC) and sub-lethal (0.5X MIC) concentrations.
# Overnight grown C. jejuni 81–176 culture was washed and suspended in MH broth to an OD600 of 0.05 (~10^7 CFU). Five milli liter of the OD adjusted fresh culture was mixed with 0.5X MIC of the relevant test compound (concentration allowing > 50% growth inhibition). Campylobacter jejuni cultured in 20 μg/mL chloramphenicol, or 50 μg/mL kanamycin, or 2% DMSO, or non-amended MH broth were used as controls. The bacteria were incubated at 42°C with shaking at 200 rpm for 24 h in the dark. Following incubation, cultures were centrifuged at 4700 × g for 10 min at room temperature. The supernatant was discarded; bacteria were resuspended in 5 ml of fresh MH containing 0.5X MIC of the same small molecule. This procedure was repeated 14 times. Following 15 passages, bacterial suspensions were assessed for resistance to the test compound by plating on MH media containing 1X MIC of small molecules.
# Our rationale for performing the resistance studies was to determine the ability of C. jejuni strain to develop resistance to these compounds when cultured on solid media with a lethal dose (5X MIC) or in liquid media with a sub-lethal dose (0.5X MIC). The presence of resistant colonies in any of these assays would reduce the attractiveness of the relevant small molecule while an absence of resistant colonies would indicate a likely inability of C. jejuni to develop resistance in general. […] Since C. jejuni is the major cause of human campylobacteriosis (95% of the cases); (Butzler, [2004]) and due to limitation of compounds availability, we only performed resistance studies on C. jejuni 81–176. However, for future commercial application of these antimicrobials, more in-depth characterization of potential resistance by other C. jejuni strains and C. coli is warranted.
# C. jejuni 81–176 [4] = test: Minimum bactericidal concentration (MBC); format: cell-based, Campylobacter jejuni; conditions: for MBC: Campylobacter jejuni, read-out: C. jejuni MBC (minimum bactericidal concentration)
# Procedure: (§4) The percentage of C. jejuni growth inhibition was calculated as mentioned previously (De La Fuente et al., [2006]) using the following formula: percentage of inhibition = 100 × (OD negative control–OD test compound)/(OD negative control–OD positive control). Compounds that inhibited Campylobacter growth ≥ 99.0% were selected as primary hits. The culture in wells with ≥ 99% growth inhibition were streaked onto fresh MH agar, as were the sterility, antibiotic and no compound control wells. Bacterial growth was measured on the plate after 48 h at 42°C. Based on the recovery of C. jejuni on MH agar plates, the compound was classified as either “bacteriostatic” or “bactericidal.”
# as §2
# C. jejuni 81–176 [5] = test: Minimum inhibitory concentration (MIC), two-fold serial dilution, OD600 end point; format: cell-based; conditions: Campylobacter jejuni, 24 h, read-out: C. jejuni MIC (minimum inhibitory concentration)
# Procedure: A primary screen was conducted using the highly invasive C. jejuni strain 81–176 originally isolated from a diarrheic patient (Korlath et al., [1985]). The C. jejuni strains were routinely grown on Mueller-Hinton (MH; Becton Dickinson and Company, MD) agar under microaerobic conditions (85% N2, 10% CO2, and 5% O2) in a DG250 Microaerophilic Workstation (Microbiology International, MD) for 18 h, washed with MH broth and adjusted to a final OD600 of 0.1 in MH broth. One hundred micro liter of culture was transferred to 96-well plates and 1 μL (200 μM/μL) of library compounds and controls were added using a pin tool (Wallace et al., [2011]). Growth controls including DMSO (1% final concentration), kanamycin (50 μg), and chloramphenicol (20 μg) were added to duplicate wells along with 100 μL un-inoculated MH broth as sterility control. The final concentration was 200 μM for each small molecule. Prior to growth, an aluminum foil was applied (to avoid drug degradation) and plates were then incubated at 42°C, under microaerobic conditions for 24 h. The end-point OD600 was measured in a Sunrise TM Tecan plate reader (Tecan Group Ltd. San Jose, CA). We initially tried to exploit the automatic kinetic OD reader option of the Sunrise TM Tecan system but were un-successful. Maintenance of the microaerophilic growth conditions required by C. jejuni was difficult in the Tecan reader which is ideally suited for aerobic bacteria. Therefore, we used an end point assay. The quality of high-throughput screen (HTS) was evaluated by calculating the Z′-factor as described previously (Zhang et al., [1999]). Z′-factor is defined as 1−((3σp + 3σn)/|μp − μn|)) where “σp” and “σn” are the standard deviations of the positive (culture+ DMSO) and negative (culture+antibiotics) controls, respectively and “μp” and “μn” are the means of the positive and negative controls, respectively. A Z′-factor >0.5 indicates a robust assay (Zhang et al., [1999]).
# as §4, §3
# The minimal concentrations of compounds that inhibit the growth of C. jejuni were tested by two-fold serial dilution of each of compound in media as well as in DMSO. The results were reproducible irrespective of diluent used; however, a few compounds precipitated when media was used as a diluent. A recent study also described the in-solubility issues with a few small molecule compounds when dissolved in media for MIC determination (Selin et al., [2015]). […] Among the 21 compounds, 16 were effective at 50 μM, 7 were effective at 25 μM, and 4 were effective at 12.5 μM. We selected top-12 bactericidal compounds with MICs varying from 100 to 12.5 μM concentration for further downstream study.
# [6] = ATCC33559, concentration at which 99.9% of organisms are killed, read-out: C. coli MBC
# [7] = Campylobacter coli, ATCC33559; read-out: C. coli MIC
# [8] = concentration at which 99.9% of organisms are killed
# [9] = C. jejuni 81–176, 42°C microaerobic, dilution 200 to 12.5 μM
# [10] = ATCC33559, read-out: C. coli MBC
# [11] = Campylobacter coli, ATCC33559, read-out: C. coli MIC
SMILES,MBC relative to MIC for C. coli (C. coli ATCC 33559 [1]),MBC (C. coli ATCC 33559 [1]; [6]) [µM],MIC (C. coli ATCC 33559 [2]; [7]) [µM],"Resistance, passage 0.5X MIC (C. jejuni 81–176 [3])",MBC relative to MIC for C. jejuni (C. jejuni 81–176 [4]),MBC (C. jejuni 81–176 [4]; [8]) [µM],MIC (C. jejuni 81–176 [5]; [9]) [µM],MBC (C. coli ATCC 33559 [1]; [10]) [µM],MIC (C. coli ATCC 33559 [2]; [11]) [µM],MBC (C. jejuni 81–176 [4]) [µM],MIC (C. jejuni 81–176 [5]) [µM]
O=S(=O)(Nc1cccc(C(F)(F)F)c1)c1ccc(Br)cc1 [Comp 1],same as that of their MIC,50,50,No,same as that of their MIC,50,50,–,–,–,–
COc1ccc(CN2CCN(c3ccc(F)cc3)CC2)cc1C [Comp 2],two-fold higher,–,–,No,same as that of their MIC,–,–,100,50,100,100
CN(C)c1ccc(CN2CCN(c3ccccc3Cl)CC2)cc1 [Comp 3],same as that of their MIC,–,–,No,two-fold higher,–,–,50,50,25,12.5
Clc1ccc(N2CCN(Cc3ccsc3)CC2)cc1 [Comp 4],two-fold higher,100,50,No,same as that of their MIC,50,50,–,–,–,–
Cc1ccc(N2CCN(C/C=C/c3ccccc3)CC2)cc1 [Comp 5],same as that of their MIC,50,50,No,same as that of their MIC,50,50,–,–,–,–
O=c1c(Cl)c(Cl)cnn1-c1ccccc1Cl [Comp 7],same as that of their MIC,50,50,No,same as that of their MIC,12.5,12.5,–,–,–,–
Cc1c(C(C)NCc2cccc(OC3CCCC3)c2)cnn1-c1ccccc1 (stereo not drawn) [Comp 10],same as that of their MIC,100,100,No,same as that of their MIC,50,50,–,–,–,–
COc1ccc(CNCc2ccc(Cl)s2)cc1OCC(O)CN1CCCC1 (stereo not drawn) [Comp 12],two-fold higher,100,50,No,same as that of their MIC,100,100,–,–,–,–
CN(Cc1cccc2cnccc12)CC1CCCN(CCc2ccc(F)cc2)C1 (stereo not drawn) [Comp 13],same as that of their MIC,50,50,No,two-fold higher,25,12.5,–,–,–,–
CN(CC(O)COc1ccccc1CNC1(c2ccccc2)CC1)C1CCCCC1 (stereo not drawn) [Comp 17],same as that of their MIC,50,50,No,two-fold higher,25,12.5,–,–,–,–
CN(Cc1ccccc1)CC1CCCN(CCc2ccc(F)cc2)C1 (stereo not drawn) [Comp 18],two-fold higher,> 200,200,No,same as that of their MIC,25,25,–,–,–,–
CC(=O)Nc1ccc(CN(C)CC2CCCN(CCc3cccc(C(F)(F)F)c3)C2)cc1 (stereo not drawn) [Comp 22],same as that of their MIC,100,100,No,two-fold higher,25,12.5,–,–,–,–
